Measurements as given in ChEMBL document CHEMBL4602715, “Efficacy and Tolerability of Pyrazolo[1,5-a]pyrimidine RET Kinase Inhibitors for the Treatment of Lung Adenocarcinoma” (ACS Med Chem Lett, 2020).

Legend:
[1] = Cmax in BALB/c mouse at 20 mg/kg, po measured upto 24 hrs by LC-MS/MS analysis; type: ADME, organism-based; design: dose 20 mg/kg, route oral; conditions: in vivo
[2] = Drug uptake in plasma of Harlan Foxn1 nude mouse xenografted with rat RIE cells transfected with KIF5B/RET at 1 to 10 mg/kg, po qd for 10 days by LC-MS/MS analysis; type: ADME, organism-based; conditions: in vivo, 240 h
[3] = Toxicity in Harlan Foxn1 nude mouse xenografted with rat RIE cells transfected with KIF5B/RET assessed as lung collapse at 30 to 60 mg/kg, po qd for 14 days; type: organism-based; conditions: in vivo, 336 h
[4] = Half life in BALB/c mouse at 20 mg/kg, po measured upto 24 hrs by LC-MS/MS analysis; type: ADME, organism-based; conditions: in vivo
[5] = Ratio of Cmax in BALB/c mouse brain to plasma at 20 mg/kg, po measured upto 24 hrs by LC-MS/MS analysis; type: ADME, organism-based; conditions: brain and plasma
[6] = Toxicity in Harlan Foxn1 nude mouse xenografted with rat RIE cells transfected with KIF5B/RET assessed as signs of hemorrhaging at 30 to 60 mg/kg, po qd for 14 days; type: organism-based; conditions: in vivo, 336 h
[7] = Toxicity in Harlan Foxn1 nude mouse xenografted with rat RIE cells transfected with KIF5B/RET at 1 to 10 mg/kg, po qd for 10 days; type: organism-based; conditions: in vivo, 240 h
[8] = Toxicity in NSG mouse xenografted with human LC2/ad cells assessed as body weight loss at 10 mg/kg, po qd for 21 days measured following drug dosing termination on day 24; type: organism-based; conditions: in vivo, 504 h
[9] = Toxicity in NSG mouse xenografted with human LC2/ad cells assessed as necropsy in kidneys at 10 mg/kg, po qd for 21 days measured following drug dosing termination on day 24; type: organism-based; conditions: in vivo, 504 h
[10] = Ratio of AUC in BALB/c mouse brain to plasma at 20 mg/kg, po measured upto 24 hrs by LC-MS/MS analysis; type: ADME, organism-based; conditions: brain and plasma
[11] = Toxicity in Harlan Foxn1 nude mouse xenografted with rat RIE cells transfected with KIF5B/RET at 10 mg/kg, po qd for 14 days; type: organism-based; conditions: in vivo, 336 h
[12] = AUC in BALB/c mouse at 20 mg/kg, po measured upto 24 hrs by LC-MS/MS analysis; type: ADME, organism-based; design: dose 20 mg/kg, time < 24 hr, route oral; conditions: in vivo
[13] = Oral bioavailability in BALB/c mouse at 20 mg/kg measured upto 24 hrs by LC-MS/MS analysis; type: ADME, organism-based; conditions: in vivo
[14] = Toxicity in Harlan Foxn1 nude mouse xenografted with rat RIE cells transfected with KIF5B/RET assessed as reduction in body weight at 30 to 60 mg/kg, po qd for 14 days; type: organism-based; conditions: in vivo, 336 h
[15] = Toxicity in Harlan Foxn1 nude mouse xenografted with rat RIE cells transfected with KIF5B/RET assessed as reddish mottled appearance of lungs at 30 to 60 mg/kg, po qd for 14 days; type: organism-based; conditions: in vivo, 336 h

COc1ccc(-c2cnn3c(N)c(-c4ccccc4)c(NC4CC(C)(C)N(C)C(C)(C)C4)nc23)cc1OC.Cl
Cmax [1]: 730 nM | Drug uptake [2]: Active | Activity [3]: Toxic | half-life [4]: 11 h | Kp at 24 h [5]: 0.81 | Activity [6]: Toxic | Activity [7]: Non-Toxic | Activity [8]: Toxic | Activity [9]: Toxic | Kp at 24 h [10]: 0.94 | Activity [11]: Non-Toxic | AUC at 24 h [12]: 12 µM·h | bioavailability [13]: 94% | Activity [14]: Toxic | Activity [15]: Toxic
